In one assay the test system is human AML CD34+ cells. Nature of the assay: Cell cycling, apoptosis and cell growth of AML CD34+ cells with Ara-c and Doxo. The class given is cell-based. Particulars: 500 nM combined with Ara-c and Doxo. Here is the method:
AML CD34+ cells were cultured with CpG-anti-miR-126 or CpG-SCR (500 nM) for 48 hours, then furthered cultured with miR126 inh+Ara-c+Doxo or SCR+A+D for 72 hours, then cell cycling, apoptosis (FIG. 12B) and cell growth (FIG. 12C) were analyzed.

Another assay concerns miR126. Nature of the assay: miRNA 126 expression in AML and CML cell lines by Q-RT-PCR. The class given is cell-based, human. Conditions: 500 nM, 24 hours. Here is the method:
FIGS. 4A-4G are bar graphs showing miRNA 126 expression in AML and CML cell lines. Cells were cultured with miR126-inhibitor-Cy3 (Cy3-200 nM0, human CD45 (Ab-200 nM) or Transferrin (TF-200 nM)-conjugated NP containing antagomiR-126-Cy3, CpG-miR126 inhibitor-Cy3 (CpG-Cy3-200 nM and 500 nM) for 24 hours, then miR126 and RNU44 (control) expression in these cells was analyzed by q-RT PCR. The miR126 expression levels were normalized to RNU44 and calculated by using the comparative 2^−ΔΔct method. FIG. 4A is a bar graph showing miRNA 126 expression in the K562 CML cell line. FIG. 4B is a bar graph showing miRNA 126 expression in the KG1A AML cell line. FIG. 4C is a bar graph showing miRNA 126 expression in the MV4-11 AML cell line. FIG. 4D is a bar graph showing the miRNA 126 expression in the Molm13 AML cell line. FIG. 4E is a bar graph showing the miRNA 126 expression in the NB4 AML cell line. […]
miRNA 126 expression in AML and CML lines was evaluated. CML (K562) (FIG. 4A) and AML cell lines (KG1A, MV4-11, Molm13, NB4, OCI and HL60) (FIGS. 4B-4G) were cultured with anti-miR126 inhibitor-Cy3 (Cy3 ctrl, 200 nM), human CD45 (Ab-NP, 200 nM) or Transferrin (TF-NP, 200 nM)-conjugated NP containing anti-miR-126-Cy3, or CpG-anti-miR126 inhibitor-Cy3 (CpG-200 nM and 500 nM) for 24 hours, then miR126 and RNU44 (control) expression in these cells were analyzed by Q-RT-PCR.

Assay [1] relates to CML CD34+, CD34+CD38+ committed and CD34+CD38− primitive progenitors. Nature of the assay: Apoptosis of CML progenitors by Annexin V/DAPI staining. In kind it is cell-based, human. Conditions: 500 nM combined with NIL 5 uM, 72 hours, compared with CpG-scramble and NIL. How it is done:
CML CD34+, CD34+CD38+ committed and CD34+CD38− primitive progenitors were cultured with CpG-scramble RNA (500 nM), CpG-miR126 inhibitor (500 nM), CpG-scramble RNA (500 nM)+Nilotinib (5 μM), and CpG-miR126 inhibitor (500 nM)+NIL (5 μM) for 72 hours and then apoptosis was analyzed by Annexin V/DAPI staining.
CML CD34+, CD34+CD38+ committed and CD34+CD38− primitive progenitors were cultured with CpG-scramble RNA (500 nM), CpG-anti-miR126 inhibitor (500 nM), CpG-scramble RNA (500 nM)+Nilotinib (NIL, 5 uM), and CpG-anti-miR126 inhibitor (500 nM)+NIL (5 uM) for 72 hours and then cell cycling and apoptosis were analyzed by EDU/DAPi and Annexin V/DAPi staining.

For assay [2], the system named is CML cells in SCLtTA/BCR-ABL mice. The assay is described as follows: In vivo treatment of SCLtTA/BCR-ABL mice. On the set-up: species or system mouse. Particulars: 3 weeks, compared with NIL+SCR. Here is the method: SCLtTA/BCR-ABL mice were treated with CpG-miR-126 inhibitor (5 mg/kg, every other day, iv injection), SCR (5 mg/kg, every other day, iv injection), NIL (50 mg/kg, daily by garage)+SCR, NIL+miR-126 inhibitor for 3 weeks and then the remaining CML cells in the PB (FIG. 13A), BM (FIG. 13C) and spleen (FIG. 13D) were analyzed.
FIGS. 14A-D are scatter plots showing reduced CML LSK and LSC observed in the bone marrow (BM) (FIGS. 14A, 14C) and spleen (FIGS. 14B, 14D) of the mice treated with NIL+miR126 inhibitor compared with the mice treated with NIL+SCR. SCLtTA/BCR-ABL mice were treated with CpG-miR-126 inhibitor, SCR, NIL+SCR, NIL+miR-126 inhibitor for 3 weeks and then the remaining CML LSK primitive cells and LSC in the BM and spleen were analyzed.
SCLtTA/BCR-ABL mice were treated with CpG-miR-126 inhibitor (5 mg/kg, every other day, iv injection), SCR (5 mg/kg, every other day, iv injection), NIL (50 mg/kg, daily by garage)+SCR, NIL+miR-126 inhibitor for 3 weeks and then the remaining CML cells in the PB, BM and spleen were analyzed. […] The effect of CpG-anti-miR-126 on growth of primary AML LSC and therapeutic response in vivo is still ongoing. These observations indicate that blocking of miR-126 by a myeloid cell-specific CpG-anti-miR-126 ODN inhibitor, among other compounds of the present disclosure, is very effective, and therefore represents a novel therapeutic method targeting miRNA in leukemia and other types of cancer disclosed herein.

Assay [3] concerns long term hematopoietic stem cells (LTHSC, Lin-Sca-1+c-kit+Fit3-CD150+CD48−) from normal and CML mouse. Nature of the assay: Cell cycling of murine LTHSC by EDU/DAPi staining. The class given is cell-based. Conditions: 500 nM, compared with the CpG-Scr. How it is done:
Normal (NL) and CML murine LTHSC (Lin-Sca-1+Kit+Fit3− CD150+CD48− cells) were sorted and then treated with 500 nm CpG-miR126 inhibitor or CpG-SCR for 72 hours, then cell cycling was analyzed by EDU/DAPi staining.

The mark [4] stands for this setting: compared with Ara-c and Doxo alone.
[5] abbreviates: 5 mg/kg every other day iv + NIL 50 mg/kg daily.

As to “5′ G*G*T GCA TCG ATG CAGG*G*G* G*G (SEQ ID NO: 1) xxxxx mCmGmC mAmUmU mAmUmU mAmCmU mCmAmC mGmGmU mAmCmG mA (SEQ ID NO: 17) 3′ [CpG-anti-miR126]”, in the assay on human AML CD34+ cells, the cell growth result is reported as “reduction of cell growth”. Also, in the assay with human AML CD34+ cells (setting [4]), the apoptosis entry is reported as “significantly increased” and the cell cycling entry is reported as “significantly increased”. The “downregulation of miRNA126” value in the assay on miR126 (all tested human AML and CML cell lines) is “most effective downregulation”. For the same substance, the “reduction of target miRNA expression” value in the assay on miR126 (HL60, K562, MV4-11, MOLM13 and OCI cells) is listed as “more than 50%”. Moreover, in assay [1], the apoptosis result was “Increased apoptosis”. In addition, in assay [2] (setting [5]), the “CML white blood cells in the PB” value is listed as “Reduced CML white blood cells” and the spleen weight result is reported as “Reduced spleen weight”. In assay [2] (with NIL), the “CML LSK in the BM and spleen” value was “Reduced”; the “CML LTHSC in the BM and spleen” value is given as “Reduced”; the “CML cells in the BM and spleen” value is “Reduced”. Also, in assay [3], the cell-cycle entry result was “increased cell-cycle entry”.

The values above are taken from patent publication US11591596B2, “Compounds and compositions including phosphorothioated oligodeoxynucleotide, and methods of use thereof” (City of Hope, priority 2015, dated 2023).
